“And” between values parts separate entries of the source, which are not always exact repeats. Identical values can stand only once.
Experiments:
[1] = tested on: COX-2; conditions: 5 mM, 48 hours, VS culture media
Procedure: Prostaglandin (PTG) E2 was assayed in the media of VS cultures using the Prostaglandin E2 Parameter Assay Kit (R&D Systems, KGE004B). The media was collected after 48 hours of treatment from non-treated and treated cultured cells. Manufacturer's instructions were closely followed.
(§1) The cultures were incubated with the drugs for 48 hours. To label proliferating cells, BrdU was added 20 hours before fixation. pH was measured in the media after drug addition to ensure no significant deviations.

[2] = tested on: primary VS cells; test: TUNEL cell death assay in primary VS cultures; format: cell-based, human; conditions: 48 hours
Procedure: Rate of apoptosis in 6 VS cultures was assessed and correlated with tumor growth in vivo and tumor volume. […] Apoptosis was measured using terminal deoxynucleotidyl transferase dUTP nick end labeling (TUNEL, Roche Applied Sciences, NY) following manufacturer's instructions. Briefly, immunofluorescence protocol was followed as described under ‘Immunofluorescence,’ until fixations, then the cells were washed with PBS thrice and incubated in 1% Triton-X for 10 minutes on shaker. The cells were washed with PBS once and incubated in TUNEL mix for 1 hour at 37° C., then for 30 minutes at RT on shaker. The cells were then incubated in rhodamine phalloidin (Life Technologies, NY, 1:40) and Hoechst stain for 20 minutes, washed with PBS thrice and mounted onto slides for imaging. TUNEL and Hoechst stained nuclei were counted in >3 fields and the ratio of TUNEL positive to Hoechst positive nuclei was used to determine apoptosis rate in vitro. A positive control of 10 minutes-DNAse (Roche Applied Sciences, NY) treatment prior to TUNEL labeling was utilized.
For siRNA treatment, cultured primary VS cells or HEI-193 cells were placed in antibiotic and serum free media overnight. The next day, the cells were incubated with Life Technologies siRNAs targeting NF-κB genes RELA and NF-κB1, with control cells being treated with vehicle only (Lipofectamine RNAiMax), for 5 days. Some cultures were also incubated with a fluorescent random Oligo (Life Technologies) along with vehicle to assess transfection efficiency. siRNA experiments were performed in antibiotic and serum free media.
BAY11 or curcumin, diluted in 100% DMSO, were mixed to the accurate concentrations in warmed media and applied to the cultures (with DMSO concentration in media being 1% maximum), alongside a no-treatment control receiving media alone with appropriate corresponding DMSO levels.
After 48 hours of treatment, primary VS and Schwann cultures were fixed for BrdU staining, to visualize proliferation, or TUNEL staining, to visualize cell death.
After 48 hours of treatment with salicylates, primary VS and SC cultures were fixed for BrdU staining, to visualize proliferation, or TUNEL staining, to visualize cell death.

[3] = tested on: primary VS cells; test: BrdU proliferation assay in primary VS cultures; format: cell-based, human; conditions: 48 hours
Procedure: Proliferation rate of 12 VS cultures was assessed and correlated with the tumor volume in the latest gadolinium enhanced T1-weighted MRI scan prior to surgical resection, and with tumor growth in vivo, measured as changes in the tumor's volume over time calculated from serial MRI scans. Tumor growth was standardized by dividing the growth rate by the initial tumor volume. Separate analyses were performed for solid tumors, which generally account for approximately 96% of VSs (Charabi et al., 1994), versus all studied tumors, which included 4 out of 13 total tumors with a visible cystic component, because cystic components could misrepresent true tumor volume (Charabi et al., 1994). To determine the level of cell proliferation in the cultures, Bromodeoxyuridine (BrdU) was added to the cells at a concentration of 10 μg/ml 20 hours before the cells were fixed. The cells were kept in the dark after the addition of BrdU Immunofluorescence protocol was followed as described under ‘Immunofluorescence,’ and cell and nuclear membranes were permeablized by incubation in 1% Triton-X for 10 minutes and by incubation in 2N Hydrochloric acid for 20 minutes, respectively, after fixation. Primary antibody against BrdU (AbD Serotec, NC, 1:200) and anti-rat IgG (Life Technologies, NY, 1:1000) were used. BrdU- and Hoechst-stained nuclei were counted in 3-5 fields and the ratio of BrdU positive to Hoechst positive nuclei was used to determine the proliferation rate in vitro. […]
(§2) Cultured human primary VS cells, primary SCs and HEI-193 cells were treated with NF-κB inhibitors BAY11-7082 (BAY11) or curcumin for 48 hours (Santa Cruz Biotechnology). BAY11 or curcumin, diluted in 100% DMSO, were mixed to the accurate concentrations in warmed media and applied to the cultures (with DMSO concentration in media being 1% maximum), alongside a no-treatment control receiving media alone with appropriate corresponding DMSO levels. Experiments were performed in media fortified with antibiotics and serum (same formulation as described in Example 1 for culturing cells).
(§3) After 48 hours of treatment, primary VS and Schwann cultures were fixed for BrdU staining, to visualize proliferation, or TUNEL staining, to visualize cell death. The same methodology as described in Example 1 was utilized. Cleaved caspase 3 staining, another apoptosis marker to reinforce findings using TUNEL, was conducted using an antibody against cleaved caspase 3 following the ‘immunofluorescence’ protocol outlined in Example 1.
as §1
(§4) After 48 hours of treatment with salicylates, primary VS and SC cultures were fixed for BrdU staining, to visualize proliferation, or TUNEL staining, to visualize cell death. The same methodology as described in Example 1 was utilized.
To understand cross-talk between HGF and VEGF-A pathway, cultured VS cells were incubated with Life Technologies silencer select siRNAs targeting VEGFA (s461) or MET (s8700). To understand whether HGF signaling contributed to VS proliferation, cultured VS cells were treated with MET inhibitor SU11274 (Sigma-Aldrich, MO, #S9820). Seventy-two hours after siRNA treatment or 12 hours after treatment with SU11274 (2 μM), cells were incubated with 10 μg/mL BrdU (Life Technologies, NY, # B23151) for 20 hours before fixation.

[4] = tested on: primary SCs; test: BrdU proliferation assay in primary Schwann cell cultures; format: cell-based, human; conditions: 48 hours
Procedure: Proliferation rate of 12 VS cultures was assessed and correlated with the tumor volume in the latest gadolinium enhanced T1-weighted MRI scan prior to surgical resection, and with tumor growth in vivo, measured as changes in the tumor's volume over time calculated from serial MRI scans. Tumor growth was standardized by dividing the growth rate by the initial tumor volume. Separate analyses were performed for solid tumors, which generally account for approximately 96% of VSs (Charabi et al., 1994), versus all studied tumors, which included 4 out of 13 total tumors with a visible cystic component, because cystic components could misrepresent true tumor volume (Charabi et al., 1994). To determine the level of cell proliferation in the cultures, Bromodeoxyuridine (BrdU) was added to the cells at a concentration of 10 μg/ml 20 hours before the cells were fixed. The cells were kept in the dark after the addition of BrdU Immunofluorescence protocol was followed as described under ‘Immunofluorescence,’ and cell and nuclear membranes were permeablized by incubation in 1% Triton-X for 10 minutes and by incubation in 2N Hydrochloric acid for 20 minutes, respectively, after fixation. Primary antibody against BrdU (AbD Serotec, NC, 1:200) and anti-rat IgG (Life Technologies, NY, 1:1000) were used. BrdU- and Hoechst-stained nuclei were counted in 3-5 fields and the ratio of BrdU positive to Hoechst positive nuclei was used to determine the proliferation rate in vitro.
as §2, §3, §1, §4

[5] = tested on: sporadic VS; conditions: retrospective study, serial MRI scans (Kandathil et al., 2014); cited from earlier work
[6] = tested on: rat cochlear explants; conditions: 1 mM (Zheng and Gao, 1996); cited from earlier work
[7] = tested on: cochlear explant cultures (hair cells and neurites); test: Murine cochlear explant culture, hair cell, neurite and fiber damage counts; format: cell-based, CBA/CaJ mice; conditions: for number of IHCs per 100 μm length / number of OHCs / number of neurites / severity of fiber disorganization / damage: recombinant human protein 5 μg/mL, 48 hours; for severity of fiber disorganization / damage: scale 0 to 2
Description: To develop an animal model to study hearing loss due to VS, cochlear explant cultures were established from postnatal CBA/CaJ mice aged P3-P5 (Jackson Laboratory, ME). Briefly, after decapitating the mouse, temporal bones were dissected from the skull in Hank's Balanced Salt Solution (Life Technologies, NY). The otic capsule encasing the cochlea was dissected out from each temporal bone. The otic capsule was carefully stripped away and the spiral ligament was peeled away from the entire cochlea, starting from the base. The basal turn of cochlea was then isolated using the dissecting knife (Fine Science Tools, CA), discarding the apical turn hook region. The tectorial membrane and the Reissner's membrane were removed, leaving the organ of Corti intact with the spiral ganglion neuron region. This explant was cultured onto a 10 mm glass coverslip coated with CellTak (BD Biosciences, CA, #354241) in a 35 mm culture dish with 4 wells. Cells were cultured in 98% DMEM, 1% ampicillin and 1% N2 supplement.
To assess FGF2's otoprotective effect, cochlear explant cultures were treated with recombinant human FGF2±gentamicin. After culturing the explants overnight, media fortified with FGF2 (100 ng/mL) was applied. Twenty-four hours later media fortified with gentamicin (1 mM) and FGF2 (100 ng/mL) was applied. […] Cochlear explants were fixed after an additional 24 hours of treatment, with total time being 48 hours.
After treatment, the explants were fixed and stained with antibodies against myosin 7A (Myo7A, Proteus Biosciences, CA) and β-tubulin (Tuj1, Covance, MA) to identify hair cells (HCs) and neurons, respectively. The same immunofluorescence protocol as described in Example 1 was used, with the exceptions of omission of […] HCl incubation, usage of 5% NHS with 1% Triton-X for blocking solution and 1% NHS with 0.4% Triton-X solution for primary antibody incubation at room temperature (RT). Secondary antibodies (Alexa Flour 555 anti-mouse and Alexa Four 488 anti-rabbit) were purchased from Life Technologies. Cochlear explants were imaged using a Leica TCS SP5 Confocal microscope. Zoomed-in pictures for the region of organ of Corti, including neurites, were merged in a z-stack to obtain a z-axis projection image in the Leica software. The number of hair cells (HCs) and neurites were manually counted per 100 μm length along the cochlea, with 1-2 samplings per specimen.
The same general methodology for murine cochlear explant cultures as described in Example 5 was utilized. Cochlear explant cultures were established from P2-P3 mice. Importantly, instead of only culturing the basal turn, the apical turn was also isolated, providing two pieces per cochlea with a greater frequency range. After approximately 12 hours, the cochlear explant cultures were treated for 48 hours with tumor secretions diluted to half their concentration. The formulation was 46.5% tumor-conditioned DMEM, 46.5% plain DMEM, 5% FBS, 1% ampicillin and 1% N2 supplement. Cochlear explants were treated with control media in parallel, being 46.5% DMEM incubated without tumor, 46.5% plain DMEM, 5% FBS, 1% ampicillin and 1% N2 supplement. All reagents were purchased from Life Technologies, NY. Osmolality in the solutions was measured in samples using a vapor-pressure osmometer (standardized with 290 mOsm/kg of 0.1567M sodium chloride solution) before applying them onto cochlear explants. Extra formulation for each VS secretion was made to be tested on Milliplex arrays and ELISA. Milliplex array, containing FGF2, VEGF-A and HGF beads (Millipore) and human TNFα ELISA (R&D Systems) were conducted as directed by the manufacturer on VS secretions prior to being applied onto the cochlear explant cultures.
Cochlear explants were fixed 48 hours after treatment and the same methodology for VS secretion application as described in Example 5 was utilized. […]

[8] = tested on: HGF; test: Mouse HGF ELISA on cochlear explants; format: cell-based; conditions: recombinant human protein 5 μg/mL, 48 hours; control 48.1±17.0
Procedure: Recombinant human VEGF-A (R&D Systems), diluted in culture media to a 5 μg/mL concentration, was applied to cochlear explants for 48 hours. The explants were fixed and the same protocol as outlined previously was followed (Example 6). […] Plain media with neutralization VEGF-A antibody and VS secretions incubated with only goat IgGs (R&D Systems, MN) were prepared simultaneously as controls. Success of VEGF-A neutralization was confirmed using ELISA.
Human VEGF-A ELISA and mouse HGF ELISA kits were purchased from R&D systems and manufacturer's protocols were followed.

CC(=O)Oc1ccccc1C(=O)O [aspirin]
secreted PTG levels, of NT cells [1]: 3.1%
cell death rate ([2]; 1 mM): 0.6±0.3%
cell death rate ([2]; 5 mM): 2.8±2.2%
proliferation, of the NT cells ([3]; 1 mM): 129.6±26.2%
proliferation, of the NT cells ([3]; 5 mM): 19% and 19.3±5.5%
normalized proliferation rate, of the NT cells ([4]; 1 mM): 124.4±72.9%
proliferation, of the NT cells ([4]; 5 mM): 198.1±141.3%
probability of VS growth in comparison to VS patients not taking aspirin [5]: approximately half

gentamicin
HC loss [6]: almost complete HC loss
neurites lost [6]: 25%
number of neurites per 100 μm ([7]; 1 mM gentamicin, basal turn, NT 13.1±1.7): 7.3±2.3 per 100 μm
total number of HCs per 100 μm length ([7]; 1 mM gentamicin, basal turn, NT 49.1±8.7): 10.4±7.0 per 100 μm

TNFα
secreted HGF levels in cochlear explants [8]: did not lead to changes
number of IHCs per 100 μm length ([7]; apical turn): 13.2±1.0 per 100 μm
number of OHCs ([7]; apical turn): 39.1±2.2 per 100 μm
number of neurites ([7]; apical turn): 14.3±2.9 per 100 μm
severity of fiber disorganization / damage ([7]; apical turn): 0.2±0.5
number of IHCs per 100 μm length ([7]; basal turn): 12.1±2.8 per 100 μm
number of OHCs ([7]; basal turn): 31.8±14.9 per 100 μm
number of neurites ([7]; basal turn): 11.3±2.4 per 100 μm
severity of fiber disorganization / damage ([7]; basal turn): 0.8±0.4
